As a reminder, the GI50 is the concentration at which growth is held to half of that of the control. A word on the TGI: it is the concentration at which net growth stops. Low values mean more potent growth arrest, high ones less potent growth arrest.

Experimental findings from PubChem BioAssay (NCI) are described below.

The structures appear in SMILES notation. Where “and” joins values, the source holds several entries; their conditions need not be identical. Equal entries are not always repeated.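 Five concentrations, 48 hours, 96-well plates. Abbreviation: GI50, concentration required for 50% inhibition of growth. The concentration for full growth arrest is given as TGI.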

Test systems include NCI-H23 lung; UACC-257 melanoma; MALME-3M melanoma; MDA-MB-435; OVCAR-3 ovarian; OVCAR-8 ovarian; SK-MEL-5 melanoma; TK-10 renal; SNB-75 CNS; LOX IMVI melanoma.
What all share (experiment): DTP human tumour cell line panel, 48 h

For the molecule `O=C1/C(=C/c2ccc(O)cc2)CSc2ccc(Cl)cc21`, the GI50 in the assay with NCI-H23 lung is 19.3 µM; with UACC-257 melanoma it was 19.1 µM; in the assay with MALME-3M melanoma it was 16.6 µM; with MDA-MB-435, 4.54 µM; in the assay with OVCAR-3 ovarian, 5.69 µM; with OVCAR-8 ovarian, 11.1 µM. The GI50 was 12.3 µM with SK-MEL-5 melanoma, 15.6 µM with TK-10 renal, 18.3 µM in the assay on SNB-75 CNS and 2.63 µM in the assay on LOX IMVI melanoma. Further, the TGI in the assay on NCI-H23 lung was 46 µM; with UACC-257 melanoma, 38.9 µM; in the assay on MALME-3M melanoma, 38 µM; with MDA-MB-435, 25.3 µM; in the assay with OVCAR-3 ovarian, 19.4 µM; in the assay on OVCAR-8 ovarian, over 100 µM. Besides, the TGI with SK-MEL-5 melanoma came out at 24.7 µM; with TK-10 renal, 34.2 µM; in the assay on SNB-75 CNS, 54.8 µM; in the assay on LOX IMVI melanoma, 8.75 µM.

As for `Cc1ccc2c(c1)CN(C(=O)CCC(=O)OCc1ccccc1)c1ccc(C)cc1CN2C(=O)CCC(=O)OCc1ccccc1`, the TGI with NCI-H23 lung, in the assay on UACC-257 melanoma, in the assay with MALME-3M melanoma, in the assay on MDA-MB-435, with OVCAR-3 ovarian and in the assay with OVCAR-8 ovarian was over 100 µM throughout. The concentration for total growth inhibition (TGI) with SK-MEL-5 melanoma was over 100 µM; in the assay on TK-10 renal, over 100 µM; with SNB-75 CNS it was 62.6 µM; with LOX IMVI melanoma it was over 100 µM.

In the case of `CNc1nc(N)c(N=O)c(Nc2ccc(Br)cc2)n1`, the TGI in the assay with NCI-H23 lung, in the assay on UACC-257 melanoma, with MALME-3M melanoma, in the assay with MDA-MB-435, in the assay on OVCAR-3 ovarian and in the assay with OVCAR-8 ovarian was over 100 µM in each case. The TGI in the assay on SK-MEL-5 melanoma, in the assay on TK-10 renal, with SNB-75 CNS and in the assay with LOX IMVI melanoma was over 100 µM throughout.

As for `CON(C)C(=O)N1N=C(c2cc(F)ccc2F)SC1(CCCN)c1ccccc1` (stereo not drawn), the GI50 in the assay with NCI-H23 lung is 0.0936 µM and < 0.01 µM; with MALME-3M melanoma, 13.3 µM and 10.5 µM; in the assay with MDA-MB-435, under 0.01 µM; with OVCAR-3 ovarian, 0.0298 µM and < 0.01 µM; in the assay on OVCAR-8 ovarian, 0.0266 µM and < 0.01 µM; in the assay on SK-MEL-5 melanoma, under 0.01 µM. Besides, the GI50 was 3.19 µM and 2.33 µM in the assay on TK-10 renal; 0.0531 µM and < 0.01 µM in the assay with SNB-75 CNS; 0.024 µM and < 0.01 µM with LOX IMVI melanoma. In addition, the TGI in the assay on NCI-H23 lung was 21.9 µM and 14.8 µM; with UACC-257 melanoma, 21.7 µM and 22.3 µM; with MALME-3M melanoma, 31.6 µM and 28.3 µM; with MDA-MB-435, under 0.01 µM; in the assay with OVCAR-3 ovarian, 12.4 µM and 12.2 µM; in the assay on OVCAR-8 ovarian, 18.9 µM and 19.8 µM. Besides, the TGI with SK-MEL-5 melanoma was 12.2 µM and 12.6 µM; in the assay with TK-10 renal, 18.8 µM and 17.7 µM; in the assay on SNB-75 CNS, 16.2 µM and 15 µM; with LOX IMVI melanoma it was 17.5 µM and 16.4 µM.

As for `CO[C@H]1C=C[C@@]23c4cc5c(cc4CO[C@]2(O)CN(C)[C@H]3C1)OCO5`, the TGI with NCI-H23 lung, in the assay with UACC-257 melanoma, in the assay on MALME-3M melanoma, in the assay on MDA-MB-435, in the assay with OVCAR-3 ovarian and with OVCAR-8 ovarian was over 100 µM throughout. Moreover, the TGI in the assay with SK-MEL-5 melanoma, in the assay with TK-10 renal, in the assay on SNB-75 CNS and with LOX IMVI melanoma was over 100 µM in each case.

With `CC1(C)N=C(N)N=C(N)N1c1ccc(OCc2ccc(S(=O)(=O)F)c(Cl)c2)c(Cl)c1`, the GI50 in the assay on NCI-H23 lung is 2.09 µM; in the assay on UACC-257 melanoma, 2.38 µM; in the assay on MALME-3M melanoma, 1.97 µM; in the assay on MDA-MB-435 it was 0.558 µM; in the assay with OVCAR-3 ovarian, 4.69 µM; with OVCAR-8 ovarian it was 0.735 µM. Moreover, the GI50 in the assay on SK-MEL-5 melanoma was 1.03 µM; with TK-10 renal, 59.2 µM; in the assay with SNB-75 CNS, 4.92 µM; in the assay with LOX IMVI melanoma, 0.448 µM. The TGI in the assay with NCI-H23 lung, in the assay with UACC-257 melanoma, in the assay with MALME-3M melanoma, with MDA-MB-435, in the assay on OVCAR-3 ovarian and in the assay on OVCAR-8 ovarian was over 100 µM in each case. In addition, the TGI in the assay with SK-MEL-5 melanoma, in the assay on TK-10 renal, in the assay with SNB-75 CNS and with LOX IMVI melanoma was over 100 µM in each case.

For the molecule `COc1cc2c(c(OC)c1OC)-c1c(cc3c(c1OC)OCO3)C1OC2C(C)C1C` (stereo not drawn) (tested in a mixture with another compound), the TGI in the assay with NCI-H23 lung, in the assay with UACC-257 melanoma, in the assay on MALME-3M melanoma, in the assay with MDA-MB-435, in the assay on OVCAR-3 ovarian and in the assay on OVCAR-8 ovarian was over 100 µM in each case. Also, the TGI in the assay on SK-MEL-5 melanoma, in the assay with TK-10 renal, in the assay on SNB-75 CNS and in the assay with LOX IMVI melanoma was over 100 µM in each case.

For `CC[C@H](C)[C@H]1O[C@]2(C=C[C@@H]1C)C[C@@H]1C[C@@H](C/C=C(\C)[C@@H](O[C@H]3C[C@H](OC)[C@@H](O[C@H]4C[C@H](OC)[C@@H](NC)[C@H](C)O4)[C@H](C)O3)[C@@H](C)/C=C/C=C3\CO[C@@H]4[C@H](O)C(C)=C[C@@H](C(=O)O1)[C@]34O)O2`, the GI50 in the assay with NCI-H23 lung was 2.73 µM; in the assay on UACC-257 melanoma it was 2.03 µM; in the assay on MALME-3M melanoma it was 1.85 µM; in the assay with MDA-MB-435 it was 1.79 µM; with OVCAR-3 ovarian, 3.44 µM; with OVCAR-8 ovarian, 3.84 µM. In addition, the GI50 in the assay with SK-MEL-5 melanoma is 1.8 µM; in the assay with TK-10 renal, 1.96 µM; in the assay on SNB-75 CNS it was 1.93 µM; in the assay with LOX IMVI melanoma, 1.68 µM. In addition, the TGI came to 8.34 µM in the assay on NCI-H23 lung; 4.21 µM with UACC-257 melanoma; 3.69 µM in the assay with MALME-3M melanoma; 3.62 µM in the assay with MDA-MB-435; 11.8 µM with OVCAR-3 ovarian; 14.5 µM with OVCAR-8 ovarian. The concentration for total growth inhibition (TGI) with SK-MEL-5 melanoma came to 3.2 µM; in the assay with TK-10 renal, 4.99 µM; in the assay with SNB-75 CNS it was 8.44 µM; with LOX IMVI melanoma, 3.13 µM.

Take `c1cc2c(ncc3cscc32)s1`: the TGI in the assay with NCI-H23 lung, in the assay with UACC-257 melanoma, with MALME-3M melanoma, in the assay on MDA-MB-435, in the assay with OVCAR-3 ovarian and in the assay with OVCAR-8 ovarian was over 100 µM each time. The TGI with SK-MEL-5 melanoma, in the assay on TK-10 renal, with SNB-75 CNS and in the assay on LOX IMVI melanoma was over 100 µM throughout.

Take `CCCCCN(CCCCC)CC(O)c1ccc(Cl)c2ccccc12` (stereo not drawn): the GI50 in the assay with NCI-H23 lung is 4.5 µM; with UACC-257 melanoma, 18.8 µM; in the assay on MALME-3M melanoma, 15.4 µM; in the assay on MDA-MB-435, 6.43 µM; with OVCAR-3 ovarian it was 12.4 µM; with OVCAR-8 ovarian, 16.6 µM. For the same molecule, the GI50 with SK-MEL-5 melanoma was 8.39 µM; in the assay on TK-10 renal, 15.5 µM; with SNB-75 CNS it was 11.7 µM; in the assay on LOX IMVI melanoma it was 3.94 µM. For the same molecule, the TGI came out at 19.9 µM in the assay with NCI-H23 lung; 38.7 µM in the assay with UACC-257 melanoma; 32 µM with MALME-3M melanoma; 45 µM in the assay with MDA-MB-435; 26.5 µM with OVCAR-3 ovarian; 36.6 µM in the assay on OVCAR-8 ovarian. The TGI amounted to 20.8 µM in the assay with SK-MEL-5 melanoma, 33.9 µM with TK-10 renal, 35.8 µM in the assay on SNB-75 CNS and 16.4 µM with LOX IMVI melanoma.

For `Nc1ncn(C2CC(O)C(CO)O2)c(=O)n1` (stereo not drawn), the total growth inhibition concentration (TGI) was over 375 µM in the assay on NCI-H23 lung; 131 µM in the assay with UACC-257 melanoma; over 375 µM in the assay with MALME-3M melanoma; over 98.3 µM in the assay on MDA-MB-435; 162 µM with OVCAR-3 ovarian; 370 µM with OVCAR-8 ovarian. Besides, the TGI in the assay with SK-MEL-5 melanoma is 254 µM; in the assay with TK-10 renal, over 375 µM; with SNB-75 CNS, over 288 µM; with LOX IMVI melanoma, over 375 µM.

With `CS(=O)(=O)c1cc(=O)c2ccccc2s1`, the TGI was found to be 24.7 µM in the assay with NCI-H23 lung; 7.92 µM in the assay with UACC-257 melanoma; 3.5 µM with MALME-3M melanoma; 24.8 µM in the assay with MDA-MB-435; 5.27 µM in the assay on OVCAR-3 ovarian; 6.22 µM in the assay on OVCAR-8 ovarian. Besides, the TGI with SK-MEL-5 melanoma is 28.5 µM; with TK-10 renal it was 13.7 µM; in the assay on SNB-75 CNS, 31 µM; in the assay with LOX IMVI melanoma, 17.6 µM.

With `CC(C)CCCC(=O)CCCCCCC(=O)CCN(O)C(=O)C(N)CO` (stereo not drawn), the total growth inhibition concentration (TGI) was determined as 32.1 µM in the assay on NCI-H23 lung; 35.1 µM with UACC-257 melanoma; 36.6 µM with MALME-3M melanoma; 83.6 µM with MDA-MB-435; 41.6 µM in the assay on OVCAR-3 ovarian; 39.3 µM in the assay on OVCAR-8 ovarian. Besides, the TGI amounted to 43.7 µM with SK-MEL-5 melanoma, 32.2 µM in the assay on TK-10 renal, 31.1 µM with SNB-75 CNS and 30.9 µM in the assay on LOX IMVI melanoma.

With `Fc1ccc(-c2nn3ncccc3c2-c2ccnc(Nc3ccc4c(c3)OCCO4)n2)cc1`, the GI50 in the assay on NCI-H23 lung is 6.8 µM; in the assay with UACC-257 melanoma it was 6.22 µM; in the assay with MALME-3M melanoma, 14.1 µM; in the assay on MDA-MB-435, 4.9 µM; in the assay with OVCAR-3 ovarian it was 2.12 µM; in the assay with OVCAR-8 ovarian, 6.15 µM. Besides, the GI50 was 3.99 µM with SK-MEL-5 melanoma, 1.35 µM in the assay with TK-10 renal and 3.38 µM with LOX IMVI melanoma. Further, the TGI was over 25 µM with NCI-H23 lung; 19.7 µM in the assay on UACC-257 melanoma; over 25 µM in the assay with MALME-3M melanoma; over 21.5 µM in the assay with MDA-MB-435; over 16.2 µM in the assay on OVCAR-3 ovarian; over 25 µM in the assay with OVCAR-8 ovarian. Also, the TGI was 9.51 µM in the assay on SK-MEL-5 melanoma, 9.93 µM in the assay on TK-10 renal, over 25 µM with SNB-75 CNS and 13.7 µM in the assay on LOX IMVI melanoma.
